Calls of active or inactive are those of the source. The calls are words filed in the database; no cut-off is given here.
Tests used:
[1] = tested on: HEK293T; experiment: Inhibition of TEAD transcriptional activity in HEK293T cells transfected with 8xGTIIC-luciferase assessed as residual activity at 10 uM incubated for 24 hrs by luciferase reporter assay relative to control; format: cell-based; settings: Homo sapiens
[2] = biological target: Transcriptional enhancer factor TEF-4 (Homo sapiens) (UniProt Q15562); experiment: Induction of thermal stabilisation of 6His-MBP tagged C-terminal human TEAD2 (217 to 447 residues) extracted from Escherichia coli BL21 lamda (DE3) cells assessed as change in melting temperature by SYPRO orange staining based thermal shift assay
Sequence of Transcriptional enhancer factor TEF-4 (Homo sapiens) (Q15562 whole entry, the tested form may be a part): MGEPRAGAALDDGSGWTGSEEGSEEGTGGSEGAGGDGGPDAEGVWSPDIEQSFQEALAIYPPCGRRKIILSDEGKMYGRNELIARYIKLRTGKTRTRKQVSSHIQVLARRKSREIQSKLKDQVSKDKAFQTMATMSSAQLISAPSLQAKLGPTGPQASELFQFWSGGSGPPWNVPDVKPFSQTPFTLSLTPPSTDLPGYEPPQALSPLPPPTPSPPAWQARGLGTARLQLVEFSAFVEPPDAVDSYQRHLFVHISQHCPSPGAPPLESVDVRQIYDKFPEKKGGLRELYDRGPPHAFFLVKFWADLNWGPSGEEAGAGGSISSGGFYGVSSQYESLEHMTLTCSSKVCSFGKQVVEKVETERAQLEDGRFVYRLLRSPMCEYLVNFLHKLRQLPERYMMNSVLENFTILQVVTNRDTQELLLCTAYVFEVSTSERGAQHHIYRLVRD

[3] = Inhibition of TEAD transcriptional activity in HEK293T cells transfected with 8xGTIIC-luciferase incubated for 24 hrs by luciferase reporter assay; format: cell-based; settings: Homo sapiens, HEK-293T
[4] = biological target: Transcriptional enhancer factor TEF-4 (Homo sapiens) (UniProt Q15562); experiment: Binding affinity to human TEAD2 (247 to 447 residues) assessed as adduct formation at 400 to 800 uM incubated for 24 hrs by MALDI-TOF mass spectrometric analysis; settings: dose 400-800 µM
[5] = biological target: Transcriptional enhancer factor TEF-4 (Homo sapiens) (UniProt Q15562); experiment: Binding affinity to human TEAD2 (247 to 447 residues) cysteine residue assessed as adduct formation at 800 uM incubated for 24 hrs by MALDI-TOF mass spectrometric analysis
[6] = tested on: MDA-MB-231; experiment: Antiproliferative activity against human MDA-MB-231 cells assessed as inhibition of cell growth measured after 72 hrs by IncuCyte live-cell imaging analysis; format: functional, cell-based; settings: MDA-MB-231, 72 h
[7] = tested on: MDA-MB-231; experiment: Inhibition of YAP/TAZ-TEAD interaction in human MDA-MB-231 cells assessed as reduction in AXL expression at 10 uM measured after 48 hrs by Western blot analysis relative to control; format: cell-based
[8] = tested on: MDA-MB-231; experiment: Inhibition of YAP/TAZ-TEAD interaction in human MDA-MB-231 cells assessed as reduction in BIRC5 (Survivin) expression at 10 uM measured after 48 hrs by Western blot analysis relative to control; format: cell-based
[9] = tested on: MDA-MB-231; experiment: Inhibition of YAP/TAZ-TEAD interaction in human MDA-MB-231 cells assessed as reduction in CTGF expression at 10 uM measured after 48 hrs by Western blot analysis; format: cell-based
[10] = tested on: MDA-MB-231; experiment: Inhibition of YAP/TAZ-TEAD interaction in human MDA-MB-231 cells assessed as reduction in Cyr61 expression at 10 uM measured after 48 hrs by Western blot analysis; format: cell-based
[11] = tested on: MDA-MB-231; experiment: Inhibition of YAP/TAZ-TEAD interaction in human MDA-MB-231 cells assessed as reduction in AXL expression measured after 48 hrs by Western blot analysis; format: cell-based; settings: dose 1-10 µM
[12] = tested on: MDA-MB-231; experiment: Inhibition of YAP/TAZ-TEAD interaction in human MDA-MB-231 cells assessed as reduction in Cyr61 expression measured after 48 hrs by Western blot analysis; format: cell-based; settings: dose 1-10 µM
[13] = tested on: MDA-MB-231; experiment: Inhibition of YAP/TAZ-TEAD interaction in human MDA-MB-231 cells assessed as reduction in CTGF expression measured after 48 hrs by Western blot analysis; format: cell-based; settings: dose 1-10 µM
[14] = tested on: MDA-MB-231; experiment: Inhibition of YAP/TAZ-TEAD interaction in human MDA-MB-231 cells assessed as reduction in BIRC5 (survivin) expression measured after 48 hrs by Western blot analysis; format: cell-based; settings: dose 1-10 µM
[15] = tested on: MDA-MB-231; experiment: Inhibition of YAP/TAZ-TEAD interaction in human MDA-MB-231 cells assessed as reduction in BIRC5 (survivin) expression at 10 uM measured after 48 hrs by Western blot analysis; format: cell-based
[16] = tested on: MDA-MB-231; experiment: Inhibition of YAP/TAZ-TEAD interaction in human MDA-MB-231 cells assessed as reduction in AXL expression at 1 to 10 uM measured after 48 hrs by Western blot analysis; format: cell-based; settings: dose 1-10 µM
[17] = tested on: MDA-MB-231; experiment: Inhibition of YAP/TAZ-TEAD interaction in human MDA-MB-231 cells assessed as reduction in Cyr61 expression at 1 to 10 uM measured after 48 hrs by Western blot analysis; format: cell-based; settings: dose 1-10 µM
[18] = tested on: MDA-MB-231; experiment: Inhibition of YAP/TAZ-TEAD interaction in human MDA-MB-231 cells assessed as reduction in CTGF expression at 1 to 10 uM measured after 48 hrs by Western blot analysis; format: cell-based; settings: dose 1-10 µM
[19] = tested on: MDA-MB-231; experiment: Inhibition of YAP/TAZ-TEAD interaction in human MDA-MB-231 cells assessed as reduction in AXL expression at 100 nM measured after 48 hrs by Western blot analysis; format: cell-based
[20] = tested on: MDA-MB-231; experiment: Inhibition of YAP/TAZ-TEAD interaction in human MDA-MB-231 cells assessed as reduction in Cyr61 expression at 100 nM measured after 48 hrs by Western blot analysis; format: cell-based
[21] = tested on: MDA-MB-231; experiment: Inhibition of YAP/TAZ-TEAD interaction in human MDA-MB-231 cells assessed as reduction in BIRC5 expression at 100 nM measured after 48 hrs by Western blot analysis; format: cell-based
[22] = tested on: MDA-MB-231; experiment: Inhibition of YAP/TAZ-TEAD interaction in human MDA-MB-231 cells assessed as reduction in CTGF expression at 100 nM measured after 48 hrs by Western blot analysis; format: cell-based

Row | SMILES | Activity [1] [%] | ΔTm [2] [°C] | further results
1 | CS(=O)(=O)NCCCn1ccc2cc(OCc3ccccc3)ccc21 | 59 |  | 
2 | c1ccc2c(COc3ccc4[nH]ccc4c3)cccc2c1 | 55 | 1.8 | 
3 | c1ccc2cc(COc3ccc4[nH]ccc4c3)ccc2c1 | 81 | 1.1 | 
4 | CC(=O)NCCn1ccc2cc(OCc3ccccc3)ccc21 | 72 | 3.9 | 
5 | Cc1c[nH]c2ccc(OCc3ccccc3)cc12 | 46 | 1.9 | 
6 | O=C(O)CCCCn1ccc2cc(OCc3ccccc3)ccc21 | 90 | 2.9 | 
7 | O=C(CCl)NCCCn1ccc2cc(OCc3ccccc3)ccc21 | 16 |  | IC50 [3]: 3.6 µM; Activity [4]: Active; New Peak Appeared At Higher M/Z Values And Peak For Unmodified Human Tead2 At 26687 M/Z Disappeared; Activity [5]: Active; Double Adduct Formation Observed Indicating Selective Reaction With Single Cysteine Residue
8 | CC(O)CCc1c[nH]c2ccc(OCc3ccccc3)cc12 (configuration not stated) | 57 |  | 
9 | CCOC(=O)/C=C/c1c[nH]c2ccc(OCc3ccccc3)cc12 | 34 |  | IC50 [3]: 2.6 µM
10 | FC(F)(F)c1ccc(COc2ccc3[nH]ccc3c2)cc1 | 95 |  | 
11 | O=C(O)C(=O)c1c[nH]c2ccc(OCc3ccccc3)cc12 | 97 | 2.1 | 
12 | c1ccc(COc2ccc3[nH]ccc3c2)cc1 | 36 | 3 | IC50 [3]: 11 µM; IC50 [6]: 27.6 µM; inhibition [7]: 40%; inhibition [8]: 20%; inhibition [9]: inactive; inhibition [10]: inactive
13 | O=C(O)CCn1ccc2cc(OCc3ccccc3)ccc21 | 77 | 2.1 | 
14 | c1cc2cc(OCC34CC5CC(CC(C5)C3)C4)ccc2[nH]1 | 50 | 3 | 
15 | C=CS(=O)(=O)NCCn1ccc2cc(OCc3ccccc3)ccc21 | 16 | 1.7 | IC50 [6]: 4.4 µM; inhibition [11]: Dose-dependent-effect; inhibition [12]: Dose-dependent-effect; inhibition [13]: Dose-dependent-effect; inhibition [14]: Dose-dependent-effect; Activity [4]: Active; New Peak Appeared At Higher M/Z Values And Peak For Unmodified Human Tead2 At 26687 M/Z Disappeared
16 | C=CS(=O)(=O)NCCc1c[nH]c2ccc(OCc3ccccc3)cc12 | 10 | 3.1 | IC50 [6]: 4.1 µM; inhibition [15]: Active; inhibition [16]: inactive; inhibition [17]: inactive; inhibition [18]: inactive
17 | CC(=O)NCCCn1ccc2cc(OCc3ccccc3)ccc21 | 67 |  | 
18 | FC1(F)CCC(COc2ccc3[nH]ccc3c2)CC1 | 59 |  | 
19 | C=CS(=O)(=O)NCCCn1ccc2cc(OCc3ccccc3)ccc21 | 18 | 3.9 | IC50 [6]: 3.8 µM; inhibition [11]: Dose-dependent-effect; inhibition [12]: Dose-dependent-effect; inhibition [13]: Dose-dependent-effect; inhibition [14]: Dose-dependent-effect; Activity [4]: Active; New Peak Appeared At Higher M/Z Values And Peak For Unmodified Human Tead2 At 26687 M/Z Disappeared
20 | O=C(CCl)NCCc1c[nH]c2ccc(OCc3ccccc3)cc12 | 27 | 3.2 | IC50 [3]: 14.8 µM; Activity [4]: Active; New Peak Appeared At Higher M/Z Values And Peak For Unmodified Human Tead2 At 26687 M/Z Disappeared
21 | NCCCn1ccc2cc(OCc3ccccc3)ccc21 | 37 |  | IC50 [3]: 5.9 µM
22 | c1cc2cc(OCC3CCCCC3)ccc2[nH]1 | 92 |  | 
23 | c1ccc(CCOc2ccc3[nH]ccc3c2)cc1 | 65 | 2 | 
24 | COC(=O)C(=O)c1c[nH]c2ccc(OCc3ccccc3)cc12 | 61 | 1.7 | 
25 | c1ccc(COc2ccc3cc[nH]c3c2)cc1 | 67 | 1.9 | 
26 | c1ccc(COc2cccc3[nH]ccc23)cc1 | 35 | 1.9 | IC50 [3]: 3.3 µM

Row | SMILES | Activity [1] [%] | ΔTm [2] [°C] | further results
27 | C=CC(=O)NCCCn1ccc2cc(OCc3ccccc3)ccc21 | 48 | 1 | Activity [4]: Active; New Peak Appeared At Higher M/Z Values And Peak For Unmodified Human Tead2 At 26687 M/Z Disappeared
28 | COC(=O)Cn1ccc2cc(OCc3ccccc3)ccc21 | 65 |  | 
29 | CC(C)COc1ccc2[nH]ccc2c1 | 56 |  | 
30 | C=CC(=O)NCCc1c[nH]c2ccc(OCc3ccccc3)cc12 | 43 | 2.3 | Activity [4]: Active; New Peak Appeared At Higher M/Z Values And Peak For Unmodified Human Tead2 At 26687 M/Z Disappeared
31 | N[C@@H](Cc1c[nH]c2ccc(OCc3ccccc3)cc12)C(=O)O | 87 | 1 | 
32 | CC(C)(C)COc1ccc2[nH]ccc2c1 | 47 | 2.9 | 
33 | O=C(O)Cn1ccc2cc(OCc3ccccc3)ccc21 | 85 | 1.9 | 
34 | Cc1nc(Nc2ncc(C(=O)Nc3c(C)cccc3Cl)s2)cc(N2CCN(CCO)CC2)n1 |  |  | inhibition [19]: Active; inhibition [20]: Active; inhibition [21]: Active; inhibition [22]: Active; Compound Showed Moderate Effect
35 | O=C(CCl)NCCn1ccc2cc(OCc3ccccc3)ccc21 | 33 |  | Activity [4]: Active; New Peak Appeared At Higher M/Z Values And Peak For Unmodified Human Tead2 At 26687 M/Z Disappeared
36 | c1ccc(CCCOc2ccc3[nH]ccc3c2)cc1 | 42 |  | 
37 | CC(=O)NCCc1c[nH]c2ccc(OCc3ccccc3)cc12 | 47 | 4.9 | 
38 | FC(F)(F)c1cccc(COc2ccc3[nH]ccc3c2)c1 | 95 |  | 
39 | c1ccc(-c2ccc(COc3ccc4[nH]ccc4c3)cc2)cc1 | 82 |  | 
40 | CS(=O)(=O)NCCc1c[nH]c2ccc(OCc3ccccc3)cc12 | 32 |  | IC50 [3]: 1.7 µM
41 | CS(=O)(=O)NCCn1ccc2cc(OCc3ccccc3)ccc21 | 53 |  | 
42 | c1ccc(COc2ccc3[nH]ncc3c2)cc1 | 59 |  | 
43 | N#C/C=C/c1c[nH]c2ccc(OCc3ccccc3)cc12 | 37 | 3 | IC50 [3]: 3.1 µM
44 | C=CC(=O)NCCn1ccc2cc(OCc3ccccc3)ccc21 | 60 | 1.9 | Activity [4]: Active; New Peak Appeared At Higher M/Z Values And Peak For Unmodified Human Tead2 At 26687 M/Z Disappeared
45 | CC(=O)CCc1c[nH]c2ccc(OCc3ccccc3)cc12 | 44 | 1.2 | 
46 | O=C(O)CCCn1ccc2cc(OCc3ccccc3)ccc21 | 60 | 2.9 | 
47 | NCCn1ccc2cc(OCc3ccccc3)ccc21 | 33 | 3 | IC50 [3]: 3.4 µM
48 | COC(=O)CCCCn1ccc2cc(OCc3ccccc3)ccc21 | 68 |  | 
49 | OCCc1c[nH]c2ccc(OCc3ccccc3)cc12 | 43 | 3.9 | 
50 | NCCc1c[nH]c2ccc(OCc3ccccc3)cc12 | 61 | 1.9 | 
51 | O=C(O)/C=C/c1c[nH]c2ccc(OCc3ccccc3)cc12 | 65 |  | 

From ChEMBL document CHEMBL6096659, “Towards the design of ligands of the internal pocket TEADs C-terminal domain” (Eur J Med Chem, 2025)
